Experimental data reported in ChEMBL document CHEMBL1140860, “Synthesis and evaluation of dihydroartemisinin and dihydroartemisitene acetal dimers showing anticancer and antiprotozoal activity” (Bioorg Med Chem, 2009).

Columns and labels:
NCI-H23 = assay: Growth inhibition of human NCI-H23 cells after 48 hrs by sulforhodamine B assay; assay type: functional; settings: NCI-H23, 48 h
K562 = assay: Growth inhibition of human K562 cells after 48 hrs by sulforhodamine B assay; assay type: functional; settings: K562, 48 h
SK-MEL-2 = assay: Growth inhibition of human SK-MEL-2 cells after 48 hrs by sulforhodamine B assay; assay type: functional; settings: SK-MEL-2, 48 h
MDA-MB-231 = assay: Growth inhibition of human MDA-MB-231 cells after 48 hrs by sulforhodamine B assay; assay type: functional; settings: MDA-MB-231, 48 h
SW-620 = assay: Growth inhibition of human SW620 cells after 48 hrs by sulforhodamine B assay; assay type: functional; settings: SW-620, 48 h
MOLT-4 = assay: Growth inhibition of human MOLT4 cells after 48 hrs by sulforhodamine B assay; assay type: functional; settings: MOLT-4, 48 h
HCT-15 = assay: Growth inhibition of human HCT15 cells after 48 hrs by sulforhodamine B assay; assay type: functional; settings: HCT-15, 48 h
NCI-H226 = assay: Growth inhibition of human NCI-H226 cells after 48 hrs by sulforhodamine B assay; assay type: functional; settings: NCI-H226, 48 h
SK-MEL-5 = assay: Growth inhibition of human SK-MEL-5 cells after 48 hrs by sulforhodamine B assay; assay type: functional; settings: SK-MEL-5, 48 h
SK-OV-3 = assay: Growth inhibition of human SKOV3 cells after 48 hrs by sulforhodamine B assay; assay type: functional; settings: SK-OV-3, 48 h
A498 = assay: Growth inhibition of human A498 cells after 48 hrs by sulforhodamine B assay; assay type: functional; settings: A498, 48 h
[1] = Growth inhibition of human Hs 578T cells after 48 hrs by sulforhodamine B assay; assay type: functional
CCRF-CEM = assay: Growth inhibition of human CCRF-CEM cells after 48 hrs by sulforhodamine B assay; assay type: functional
SN12C = assay: Growth inhibition of human SN12C cells after 48 hrs by sulforhodamine B assay; assay type: functional
OVCAR-3 = assay: Growth inhibition of human OVCAR-3 cells after 48 hrs by sulforhodamine B assay; assay type: functional; settings: OVCAR-3, 48 h
SNB-75 = assay: Growth inhibition of human SNB75 cells after 48 hrs by sulforhodamine B assay; assay type: functional; settings: SNB-75, 48 h
UACC-62 = assay: Growth inhibition of human UACC62 cells after 48 hrs by sulforhodamine B assay; assay type: functional; settings: UACC-62, 48 h
U-251 = assay: Growth inhibition of human U251 cells after 48 hrs by sulforhodamine B assay; assay type: functional; settings: U-251, 48 h
KM12 = assay: Growth inhibition of human KM12 cells after 48 hrs by sulforhodamine B assay; assay type: functional; settings: KM12, 48 h
UO-31 = assay: Growth inhibition of human UO31 cells after 48 hrs by sulforhodamine B assay; assay type: functional; settings: UO-31, 48 h
TK-10 = assay: Growth inhibition of human TK10 cells after 48 hrs by sulforhodamine B assay; assay type: functional; settings: TK-10, 48 h
SF-268 = assay: Growth inhibition of human SF268 cells after 48 hrs by sulforhodamine B assay; assay type: functional; settings: SF-268, 48 h
SK-MEL-28 = assay: Growth inhibition of human SK-MEL-28 cells after 48 hrs by sulforhodamine B assay; assay type: functional; settings: SK-MEL-28, 48 h
[2] = Selectivity index, ratio of TC50 for african green monkey (Cercopithecus aethiops) Vero cells to IC50 for chloroquine-sensitive Plasmodium falciparum D6; assay type: toxicity, cell-based
MDA-N = assay: Growth inhibition of human MDA-N cells after 48 hrs by sulforhodamine B assay; assay type: functional
[3] = Growth inhibition of human […] cells after 48 hrs by sulforhodamine B assay; assay type: functional
T47D = assay: Growth inhibition of human T47D cells after 48 hrs by sulforhodamine B assay; assay type: functional
HL-60 = assay: Growth inhibition of human HL-60(TB) cells after 48 hrs by sulforhodamine B assay; assay type: functional; settings: HL-60, 48 h
BT-549 = assay: Growth inhibition of human BT549 cells after 48 hrs by sulforhodamine B assay; assay type: functional; settings: BT-549, 48 h
HOP-92 = assay: Growth inhibition of human HOP92 cells after 48 hrs by sulforhodamine B assay; assay type: functional; settings: HOP-92, 48 h
HCC 2998 = assay: Growth inhibition of human HCC2998 cells after 48 hrs by sulforhodamine B assay; assay type: functional; settings: HCC 2998, 48 h
OVCAR-8 = assay: Growth inhibition of human OVCAR8 cells after 48 hrs by sulforhodamine B assay; assay type: functional; settings: OVCAR-8, 48 h
MCF7 = assay: Growth inhibition of human MCF7 cells after 48 hrs by sulforhodamine B assay; assay type: functional; settings: MCF7, 48 h
[4] = Cytotoxicity against african green monkey Vero cells after 48 hrs by neutral red assay; assay type: cell-based; settings: chlorocebus sabaeus, read-out: TC50
M14 = assay: Growth inhibition of human M14 cells after 48 hrs by sulforhodamine B assay; assay type: functional; settings: M14, 48 h
[5] = Selectivity index, ratio of TC50 for african green monkey (Cercopithecus aethiops) Vero cells to IC50 for chloroquine-resistant Plasmodium falciparum W2; assay type: toxicity, cell-based
UACC-257 = assay: Growth inhibition of human UACC257 cells after 48 hrs by sulforhodamine B assay; assay type: functional; settings: UACC-257, 48 h
Plasmodium falciparum [6] = assay: Antimalarial activity after 72 hrs against chloroquine-sensitive Plasmodium falciparum D6 infected in erythrocytes by LDH assay; assay type: functional, organism-based; settings: D6, 72 h
Malme-3M = assay: Growth inhibition of human MALME-3M cells after 48 hrs by sulforhodamine B assay; assay type: functional
OVCAR-4 = assay: Growth inhibition of human OVCAR4 cells after 48 hrs by sulforhodamine B assay; assay type: functional; settings: OVCAR-4, 48 h
LOX IMVI = assay: Growth inhibition of human LOXIMVI cells after 48 hrs by sulforhodamine B assay; assay type: functional
MDA-MB-435 = assay: Growth inhibition of human MDA-MB-435 cells after 48 hrs by sulforhodamine B assay; assay type: functional; settings: MDA-MB-435, 48 h
NCI-H322M = assay: Growth inhibition of human NCI-H322M cells after 48 hrs by sulforhodamine B assay; assay type: functional
OVCAR-5 = assay: Growth inhibition of human OVCAR5 cells after 48 hrs by sulforhodamine B assay; assay type: functional; settings: OVCAR-5, 48 h
SR = assay: Growth inhibition of human SR cells after 48 hrs by sulforhodamine B assay; assay type: functional
EKVX = assay: Growth inhibition of human EKVX cells after 48 hrs by sulforhodamine B assay; assay type: functional
NCI-H522 = assay: Growth inhibition of human NCI-H522 cells after 48 hrs by sulforhodamine B assay; assay type: functional; settings: NCI-H522, 48 h
CAKI-1 = assay: Growth inhibition of human Caki1 cells after 48 hrs by sulforhodamine B assay; assay type: functional; settings: CAKI-1, 48 h
NCI-H460 = assay: Growth inhibition of human NCI-H460 cells after 48 hrs by sulforhodamine B assay; assay type: functional; settings: NCI-H460, 48 h
A549 = assay: Growth inhibition of human A549 cells after 48 hrs by sulforhodamine B assay; assay type: functional; settings: A549, 48 h
NCI/ADR-RES = assay: Growth inhibition of human NCI/ADR-RES cells after 48 hrs by sulforhodamine B assay; assay type: functional
SNB-19 = assay: Growth inhibition of human SNB19 cells after 48 hrs by sulforhodamine B assay; assay type: functional; settings: SNB-19, 48 h
HT-29 = assay: Growth inhibition of human HT-29 cells after 48 hrs by sulforhodamine B assay; assay type: functional; settings: HT-29, 48 h
COLO 205 = assay: Growth inhibition of human COLO205 cells after 48 hrs by sulforhodamine B assay; assay type: functional; settings: COLO 205, 48 h
ACHN = assay: Growth inhibition of human ACHN cells after 48 hrs by sulforhodamine B assay; assay type: functional
Plasmodium falciparum [7] = assay: Antimalarial activity after 72 hrs against chloroquine-resistant Plasmodium falciparum W2 infected erythrocytes by LDH assay; assay type: functional, organism-based; settings: W2, 72 h
RXF 393 = assay: Growth inhibition of human RXF393 cells after 48 hrs by sulforhodamine B assay; assay type: functional; settings: RXF 393, 48 h
HOP-62 = assay: Growth inhibition of human HOP62 cells after 48 hrs by sulforhodamine B assay; assay type: functional; settings: HOP-62, 48 h
HCT-116 = assay: Growth inhibition of human HCT116 cells after 48 hrs by sulforhodamine B assay; assay type: functional; settings: HCT-116, 48 h
PC-3 = assay: Growth inhibition of human PC3 cells after 48 hrs by sulforhodamine B assay; assay type: functional; settings: PC-3, 48 h
786-0 = assay: Growth inhibition of human 786-0 cells after 48 hrs by sulforhodamine B assay; assay type: functional; settings: 786-0, 48 h
IGROV-1 = assay: Growth inhibition of human IGROV1 cells after 48 hrs by sulforhodamine B assay; assay type: functional; settings: IGROV-1, 48 h

Work on C[C@H]1[C@H](OCCCCO[C@H]2O[C@@H]3O[C@@]4(C)CC[C@H]5[C@H](C)CC[C@@H]([C@H]2C)[C@@]35OO4)O[C@@H]2O[C@@]3(C)CC[C@H]4[C@H](C)CC[C@@H]1[C@@]24OO3 yielded a GI50 (NCI-H23) of 20 nM, a GI50 (K562) of 12 nM and a GI50 (SK-MEL-2) of 318 nM. The GI50 (MDA-MB-231) was 5070 nM, the GI50 (SW-620) was 16 nM and the GI50 (MOLT-4) was 8 nM. The GI50 (HCT-15) was 7 nM, the GI50 (NCI-H226) was 34 nM and the GI50 (SK-MEL-5) was 115 nM. For the same molecule, the GI50 (SK-OV-3) was 7210 nM, the GI50 (A498) was 5770 nM and the GI50 [1] was 133 nM. It also gave a GI50 (CCRF-CEM) of 15 nM, a GI50 (SN12C) of 210 nM and a GI50 (OVCAR-3) of 203 nM. It also gave a GI50 (SNB-75) of 8050 nM, a GI50 (UACC-62) of 215 nM and a GI50 (U-251) of 25 nM. It also gave a GI50 (KM12) of 12 nM, a GI50 (UO-31) of 22 nM and a GI50 (TK-10) of 23 nM. The GI50 (SF-268) was 5620 nM, the GI50 (SK-MEL-28) was 8820 nM and the selectivity ratio [2] was 43. For the same molecule, the GI50 (MDA-N) was 58 nM, the GI50 [3] was < 5 nM and the GI50 (T47D) was < 5 nM. It also gave a GI50 (HL-60) of 12 nM, a GI50 (BT-549) of 220 nM and a GI50 (HOP-92) of 6400 nM. It also gave a GI50 (HCC 2998) of 365 nM, a GI50 (OVCAR-8) of 47 nM and a GI50 (MCF7) of 43 nM. For the same molecule, the CC50 at 48 h [4] was > 764000 nM, the GI50 (M14) was 148 nM and the selectivity ratio [5] was > 54. It also gave a GI50 (UACC-257) of 69 nM, an IC50 (Plasmodium falciparum [6]) of 17700 nM and a GI50 (Malme-3M) of 353 nM. The GI50 (OVCAR-4) was 148 nM, the GI50 (LOX IMVI) was 8 nM and the GI50 (MDA-MB-435) was 18 nM. The GI50 (NCI-H322M) was 16000 nM, the GI50 (OVCAR-5) was 65 nM and the GI50 (SR) was < 5 nM. It also gave a GI50 (EKVX) of 44 nM, a GI50 (NCI-H522) of 16 nM and a GI50 (CAKI-1) of 6560 nM. For the same molecule, the GI50 (NCI-H460) was 4230 nM, the GI50 (A549) was 35 nM and the GI50 (NCI/ADR-RES) was 214 nM. It also gave a GI50 (SNB-19) of 869 nM, a GI50 (HT-29) of 15 nM and a GI50 (COLO 205) of 12 nM. The GI50 (ACHN) was 31 nM, the IC50 (Plasmodium falciparum [7]) was 14100 nM and the GI50 (RXF 393) was 9800 nM. The GI50 (HOP-62) was 42000 nM, the GI50 (HCT-116) was 10 nM and the GI50 (PC-3) was 11 nM. It also gave a GI50 (786-0) of 107 nM and a GI50 (IGROV-1) of 381 nM.
